# Where two headings read alike, the source gives them in different places.
# Tests used:
# [1] = test system: virus proliferation; details: reported in literature; cited from earlier work
# [2] = target: T1, RNase H activity of Y188L mutant enzyme of HIV (Human immunodeficiency virus type 1 group M subtype B, UniProt P04585, Y775L); details: with preincubation
# [3] = target: polymerase activity of wild type reverse transcriptase of HIV (Human immunodeficiency virus type 1 group M subtype B, UniProt P04585); test: biochemical; details: Polymerase IC50, wild type RT
# [4] = target: T1, RNase H activity of Y188L mutant enzyme of HIV; test: biochemical
# [5] = target: T2, RNase H activity of wild type reverse transcriptase of HIV (Human immunodeficiency virus type 1 group M subtype B, UniProt P04585); test: biochemical
# [6] = target: T2, RNase H activity of wild type reverse transcriptase of HIV; details: wild type RT, with preincubation
# [7] = target: polymerase activity of Y188L mutant enzyme of HIV (Human immunodeficiency virus type 1 group M subtype B, UniProt P04585, Y775L); test: biochemical
# [8] = with preincubation, with metal cofactors
# [9] = with preincubation, without metal cofactors
Structure (SMILES),inhibition of virus proliferation in cell-based assay [1],RNaseH IC50 ([2]; with metal cofactors),RNaseH IC50 ([2]; without metal cofactors),"IC50 [3, 8]","IC50 [3, 9]",IC50 ([3]; without preincubation),IC50 [4],IC50 [5],RNaseH IC50 ([6]; with metal cofactors),RNaseH IC50 ([6]; without metal cofactors),"IC50 [7, 8]","IC50 [7, 9]",IC50 ([7]; without preincubation)
"O=C(O)C(=O)CC(=O)c1ccc(NC(=O)c2ccccc2)s1 [Compound 1, 4-[5-(benzoylamino)thien-2-yl]-2,4-dioxobutanoic acid]",can not inhibit virus proliferation,–,–,–,–,–,–,–,–,–,–,–,–
"Cc1ccc(C(=O)Nc2ccc(S(=O)(=O)O)c3cc(S(=O)(=O)O)cc(S(=O)(=O)O)c23)cc1NC(=O)c1cccc(NC(=O)Nc2cccc(C(=O)Nc3cc(C(=O)Nc4ccc(S(=O)(=O)O)c5cc(S(=O)(=O)O)cc(S(=O)(=O)O)c45)ccc3C)c2)c1 [suramin, Suramin sodium]",–,≈POL,≈POL,2.47 µM,16.2 µM,> 77.1 µM,> 77.1 µM,> 77.1 µM,≈POL,≈POL,2.47 µM,10 µM,> 77.1 µM

# Reference: patent US7572579B2, “Screening method for a ribonuclease H inhibitor of a reverse transcriptase” (priority 2004, dated 2009)
